Experimental data from ChEMBL document CHEMBL1131806, “Structure-activity relationships of pyrroloquinazolines as thrombin receptor antagonists” (Bioorg Med Chem Lett, 1999).
Active and inactive are the calls of the source. The calls are words filed in the database; no cut-off is given here.

Legend:
Homo sapiens [1] = species: Homo sapiens; experiment: Compound was evaluated for the inhibition of aggregation induced by 0.1 U/mL thrombin at 10 uM concentration and determined at 2 min; NA = Not active; assay type: functional, organism-based
[2] = biological target: T1, Proteinase-activated receptor 1 (Homo sapiens, UniProt P25116); experiment: Inhibitory activity against binding to Thrombin receptor 1 (PAR-1)
T1 sequence (P25116 whole entry): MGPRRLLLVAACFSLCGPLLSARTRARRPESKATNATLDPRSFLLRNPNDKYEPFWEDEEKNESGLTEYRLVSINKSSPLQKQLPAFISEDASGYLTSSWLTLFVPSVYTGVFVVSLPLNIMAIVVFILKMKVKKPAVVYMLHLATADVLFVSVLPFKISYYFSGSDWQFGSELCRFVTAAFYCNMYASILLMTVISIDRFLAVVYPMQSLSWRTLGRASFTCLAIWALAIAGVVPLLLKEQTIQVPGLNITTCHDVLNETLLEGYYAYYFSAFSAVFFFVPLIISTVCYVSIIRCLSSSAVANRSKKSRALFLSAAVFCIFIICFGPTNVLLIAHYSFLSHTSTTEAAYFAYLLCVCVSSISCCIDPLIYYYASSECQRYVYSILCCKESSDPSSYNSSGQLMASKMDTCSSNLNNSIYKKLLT

Homo sapiens [3] = species: Homo sapiens; experiment: Compound was evaluated for the inhibition of aggregation induced by 0.1 U/mL thrombin and determined at 2 min.; assay type: functional, organism-based
Homo sapiens [4] = species: Homo sapiens; experiment: Compound was evaluated for the inhibition of aggregation induced by 300 nM ha-TRAP(high affinity thrombin receptor agonist peptide); assay type: functional, organism-based
Homo sapiens [5] = species: Homo sapiens; experiment: Compound was evaluated for the inhibition of aggregation induced by 300 nM ha-TRAP(high affinity thrombin receptor agonist peptide) at 10 uM concentration; NA = Not active; assay type: functional, organism-based
Homo sapiens [6] = species: Homo sapiens; experiment: Compound was evaluated for the inhibition of aggregation induced by 300 nM ha-TRAP(high affinity thrombin receptor agonist peptide) at 10 uM concentration; assay type: functional
[7] = biological target: T2, Proteinase-activated receptor 1 (Homo sapiens) (UniProt P25116); experiment: Compound was evaluated for inhibitory activity against binding to Thrombin receptor 1 (PAR-1) at 1 uM concentration
T2 sequence (whole entry): T1 sequence (P25116 whole entry)

Homo sapiens [8] = species: Homo sapiens; experiment: Compound was evaluated for the inhibition of platelet aggregation induced by 0.1 U/mL thrombin at concentration. of 10 uM; NA = Not active; assay type: functional, organism-based

SMILES: CNc1nc(N(C)C)nc2ccc3c(ccn3Cc3ccc(C(C)C)cc3)c12
- inhibition (Homo sapiens [1]): inactive
- IC50 [2]: 3200 nM

SMILES: CC(C)(C)c1ccc(Cn2ccc3c4c(N)nc(N)nc4ccc32)cc1
- IC50 [2]: 1230 nM

SMILES: CC(C)c1ccc(Cn2ccc3c4c(N)nc(NC5CC5)nc4ccc32)cc1
- IC50 (Homo sapiens [3]): 3000 nM
- IC50 (Homo sapiens [4]): 300 nM
- IC50 [2]: 56 nM

SMILES: CC(C)c1ccc(Cn2ccc3c4c(N)nc(NCCO)nc4ccc32)cc1
- inhibition (Homo sapiens [1]): inactive
- inhibition (Homo sapiens [5]): inactive
- IC50 [2]: 4900 nM

SMILES: CSc1ccc(Cn2ccc3c4c(N)nc(N)nc4ccc32)cc1
- IC50 [2]: 6880 nM

SMILES: CCc1ccc(Cn2ccc3c4c(N)nc(N)nc4ccc32)cc1
- IC50 [2]: 4500 nM

SMILES: CNc1nc(N)c2c(ccc3c2ccn3Cc2ccc(C(C)C)cc2)n1
- inhibition (Homo sapiens [1]): inactive
- IC50 (Homo sapiens [4]): 600 nM
- IC50 [2]: 870 nM

SMILES: CCNc1nc(N)c2c(ccc3c2ccn3Cc2ccc(C(C)C)cc2)n1
- inhibition (Homo sapiens [1]): inactive
- IC50 (Homo sapiens [4]): 600 nM
- IC50 [2]: 524 nM

SMILES: CC(C)c1ccc(Cn2ccc3c4c(N(C)C)nc(N(C)C)nc4ccc32)cc1
- Inhibition (Homo sapiens [6]): 40%
- inhibition (Homo sapiens [1]): inactive
- IC50 [2]: 1250 nM

SMILES: CC(C)c1ccc(Cn2ccc3c4c(N)nc(N5CCNCC5)nc4ccc32)cc1
- inhibition (Homo sapiens [1]): inactive
- inhibition (Homo sapiens [5]): inactive
- inhibition [7]: 17%

SMILES: CC(C)c1ccc(Cn2ccc3c4c(N)nc(N(C)C5CC5)nc4ccc32)cc1
- IC50 (Homo sapiens [3]): 700 nM
- IC50 (Homo sapiens [4]): 150 nM
- IC50 [2]: 52 nM

SMILES: CC(C)c1ccc(Cn2ccc3c4c(N)nc(N)nc4ccc32)cc1
- inhibition (Homo sapiens [8]): inactive
- IC50 (Homo sapiens [4]): 3000 nM
- IC50 [2]: 300 nM

SMILES: CC(C)c1ccc(Cn2ccc3c4c(N)nc(N(C)C)nc4ccc32)cc1
- inhibition (Homo sapiens [1]): inactive
- IC50 (Homo sapiens [4]): 2000 nM
- IC50 [2]: 100 nM

SMILES: Cc1ccc2cc(Cn3ccc4c5c(N)nc(N)nc5ccc43)ccc2c1
- IC50 [2]: 1750 nM

SMILES: C=Cc1ccc(Cn2ccc3c4c(N)nc(N)nc4ccc32)cc1
- IC50 [2]: 9600 nM

SMILES: CCOc1ccc(Cn2ccc3c4c(N)nc(N)nc4ccc32)cc1
- IC50 [2]: 2630 nM

SMILES: CC(C)c1ccc(Cn2ccc3c4c(N)nc(N5CCc6ccccc6C5)nc4ccc32)cc1
- inhibition (Homo sapiens [1]): inactive
- inhibition [7]: inactive

SMILES: CC(C)c1ccc(Cn2ccc3c4c(N)nc(N5CCCCC5)nc4ccc32)cc1
- inhibition (Homo sapiens [1]): inactive
- IC50 (Homo sapiens [4]): 600 nM
- IC50 [2]: 100 nM
